From patent US8895761B2, “4-phenylpyrane-3,5-diones, 4-phenylthiopyrane-3,5-diones and 2-phenylcyclohexane-1,3,5-triones as herbicides” (Syngenta Limited, priority 2007, dated 2014)

Columns and labels:
Type in all cases: in vivo
[1] = system: Echinochloa crus-galli (ECHCG); assay: Pre-emergence herbicidal glasshouse test, Echinochloa crus-galli; details: Echinochloa crus-galli, 312 h, rate 250 g/ha, evaluated after 13 days, scale 100 = total damage to plant, 0 = no damage
Method: (§1) Seeds of a variety of test species were sown in standard soil in pots. After cultivation for one day (pre-emergence) or after 8 days cultivation (post-emergence) under controlled conditions in a glasshouse (at 24/16° C., day/night; 14 hours light; 65% humidity), the plants were sprayed with an aqueous spray solution derived from the formulation of the technical active ingredient in acetone/water (50:50) solution containing 0.5% Tween 20 (polyoxyethelyene sorbitan monolaurate, CAS RN 9005-64-5). The test plants were then grown in a glasshouse under controlled conditions in a glasshouse (at 24/16° C., day/night; 14 hours light; 65% humidity) and watered twice daily. After 13 days for pre and post-emergence, the test was evaluated ([…] to plant; 0=no damage to plant).
(§2) Setaria faberi (SETFA), Lolium perenne (LOLPE), Alopecurus myosuroides (ALOMY), Echinochloa crus-galli (ECHCG) and Avena fatua (AVEFA).

Avena fatua (AVEFA) [2] = assay: Post-emergence herbicidal glasshouse test, Avena fatua; details: Avena fatua, 312 h, rate 250 g/ha, evaluated after 13 days, scale 100 = total damage to plant, 0 = no damage
Method: as §1, §2

[3] = system: Alopecurus myosuroides (ALOMY); assay: Post-emergence herbicidal glasshouse test, Alopecurus myosuroides; details: Alopecurus myosuroides, 312 h, rate 250 g/ha, evaluated after 13 days, scale 100 = total damage to plant, 0 = no damage
Method: as §1, §2

Avena fatua (AVEFA) [4] = assay: Pre-emergence herbicidal glasshouse test, Avena fatua; details: Avena fatua, 312 h, rate 250 g/ha, evaluated after 13 days, scale 100 = total damage to plant, 0 = no damage
Method: as §1, §2

[5] = system: Echinochloa crus-galli (ECHCG); assay: Post-emergence herbicidal glasshouse test, Echinochloa crus-galli; details: Echinochloa crus-galli, 312 h, rate 250 g/ha, evaluated after 13 days, scale 100 = total damage to plant, 0 = no damage
Method: as §1, §2

[6] = system: Alopecurus myosuroides (ALOMY); assay: Pre-emergence herbicidal glasshouse test, Alopecurus myosuroides; details: Alopecurus myosuroides, 312 h, rate 250 g/ha, evaluated after 13 days, scale 100 = total damage to plant, 0 = no damage
Method: as §1, §2

Lolium perenne (LOLPE) [7] = assay: Pre-emergence herbicidal glasshouse test, Lolium perenne; details: 312 h, rate 250 g/ha, evaluated after 13 days, scale 100 = total damage to plant, 0 = no damage
Method: as §1, §2

Lolium perenne (LOLPE) [8] = assay: Post-emergence herbicidal glasshouse test, Lolium perenne; details: 312 h, rate 250 g/ha, evaluated after 13 days, scale 100 = total damage to plant, 0 = no damage
Method: as §1, §2

Row | Compound | pest or weed control at 250 g/ha [1] | pest or weed control at 250 g/ha (Avena fatua (AVEFA) [2]) | pest or weed control at 250 g/ha [3] | pest or weed control at 250 g/ha (Avena fatua (AVEFA) [4]) | pest or weed control at 250 g/ha [5] | pest or weed control at 250 g/ha [6] | pest or weed control at 250 g/ha (Lolium perenne (LOLPE) [7]) | pest or weed control at 250 g/ha (Lolium perenne (LOLPE) [8])
1 | CCc1cc(-c2ccc(C(F)(F)F)cc2)ccc1C1=C(O)C(C)(C)OC(C)(C)C1=O [Compound A-70] | 0% | 0% | 40% | 0% | 80% | 0% | 0% | 50%
2 | CCc1cc(-c2cccc(OC)c2)ccc1C1=C(O)C(C)(C)OC(C)(C)C1=O [Compound A-71] | 0% | 0% | 30% | 0% | 80% | 0% | 0% | 80%
3 | CCc1cc(-c2ccc(C)c(F)c2)ccc1C1=C(O)C(C)(C)OC(C)(C)C1=O [Compound A-72] | 0% | 0% | 0% | 0% | 80% | 0% | 0% | 70%
4 | CCc1cc(-c2ccc(C)cc2)ccc1C1=C(O)C(C)(C)OC(C)(C)C1=O [Compound A-73] | 0% | 0% | 30% | 0% | 80% | 0% | 0% | 60%
5 | CCc1cc(-c2cc(Cl)ccc2OC)ccc1C1=C(O)C(C)(C)OC(C)(C)C1=O [Compound A-74] | 0% | 40% | 80% | 0% | 100% | 0% | 0% | 70%
6 | CCc1cc(-c2ccc(F)c(F)c2)ccc1C1=C(O)C(C)(C)OC(C)(C)C1=O [Compound A-75] | 0% | 90% | 90% | 30% | 100% | 0% | 40% | 100%
7 | CCc1cc(-c2ccc(F)c(Cl)c2)ccc1C1=C(O)C(C)(C)OC(C)(C)C1=O [Compound A-76] | 0% | 40% | 80% | 0% | 70% | 0% | 0% | 80%
8 | CCc1cc(-c2ccc(F)c(OC)c2)ccc1C1=C(O)C(C)(C)OC(C)(C)C1=O [Compound A-78] | 0% | 90% | 80% | 30% | 100% | 20% | 80% | 100%
9 | CCc1cc(-c2ccc(F)cc2F)ccc1C1=C(O)C(C)(C)OC(C)(C)C1=O [Compound A-82] | 30% | 0% | 80% | 20% | 80% | 10% | 70% | 80%
10 | CCc1cc(-c2cc(Cl)cc(C(F)(F)F)c2)ccc1C1=C(O)C(C)(C)OC(C)(C)C1=O [Compound A-83] | 0% | 50% | 80% | 0% | 80% | 0% | 0% | 70%
11 | CCc1cc(-c2cc(F)c(F)c(F)c2)ccc1C1=C(O)C(C)(C)OC(C)(C)C1=O [Compound A-84] | 30% | 100% | 80% | 40% | 100% | 30% | 70% | 100%
12 | CCc1cc(-c2ccc(F)cc2OC)ccc1C1=C(O)C(C)(C)OC(C)(C)C1=O [Compound A-85] | 20% | 40% | 60% | 30% | 80% | 0% | 70% | 70%
13 | CCc1cc(-c2cc(F)c(F)cc2F)ccc1C1=C(O)C(C)(C)OC(C)(C)C1=O [Compound A-86] | 0% | 70% | 80% | 0% | 100% | 0% | 0% | 90%
14 | CCc1cc(-c2ccc(F)c(F)c2F)ccc1C1=C(O)C(C)(C)OC(C)(C)C1=O [Compound A-87] | 0% | 90% | 70% | 0% | 100% | 0% | 0% | 90%
15 | CCc1cc(-c2cccc(Cl)c2)ccc1C1=C(O)C(C)(C)OC(C)(C)C1=O [Compound A-95] | 30% | 50% | 80% | 0% | 80% | 10% | 30% | 80%
16 | CCc1cc(-c2ccccc2)ccc1C1=C(O)C(C)(C)OC(C)(C)C1=O [Compound A-96] | 20% | 10% | 80% | 10% | 90% | 0% | 0% | 80%
17 | CCc1cc(-c2cc(Cl)cc(Cl)c2)ccc1C1=C(O)C(C)(C)OC(C)(C)C1=O [Compound A-99] | 30% | 90% | 90% | 0% | 100% | 10% | 60% | 90%
18 | CCc1cc(-c2ccc(F)cc2)ccc1C1=C(O)C(C)(COC)OC(C)(C)C1=O (centres unmarked) [Compound A-101] | 50% | 100% | 100% | 50% | 100% | 70% | 90% | 100%
19 | CCc1cc(-c2ccc(F)cc2)ccc1C1=C(O)C(C)(CC)OC(C)(C)C1=O (centres unmarked) [Compound A-102] | 30% | 80% | 100% | 10% | 90% | 60% | 70% | 90%
20 | CCc1cc(-c2ccc(F)cc2)ccc1C1=C(O)C2(CCCC2)OC(C)(C)C1=O [Compound A-103] | 20% | 10% | 60% | 0% | 90% | 20% | 20% | 60%
21 | CCc1cc(-c2ccc(F)cc2)ccc1C1=C(O)C(C)(CC)OC(C)(CC)C1=O (centres unmarked) [Compound A-104] | 40% | 10% | 90% | 0% | 90% | 50% | 60% | 60%
22 | CCc1cc(-c2ccc(F)cc2)ccc1C1=C(O)C(C)OC(C)(C)C1=O (centres unmarked) [Compound A-105] | 20% | 30% | 80% | 0% | 90% | 40% | 40% | 90%
